Experimental data: PMC6009956, “Design, synthesis and biological activity of N^4-phenylsubstituted-7H-pyrrolo[2,3-d]pyrimidin-4-amines as dual inhibitors of aurora kinase A and epidermal growth factor receptor kinase” (Journal of Enzyme Inhibition and Medicinal Chemistry, 2017)
Read-outs that look alike come from different tables or passages of the source. One block for each molecule: values may come before it.

Key:
[1] = molecular target: EGFR (Homo sapiens, UniProt P00533); experiment: ADP-Glo kinase assay, EGFR; format: biochemical; set-up: purchased BPS Bioscience (assay run externally by the vendor)
Chain of EGFR (P00533 25-1210): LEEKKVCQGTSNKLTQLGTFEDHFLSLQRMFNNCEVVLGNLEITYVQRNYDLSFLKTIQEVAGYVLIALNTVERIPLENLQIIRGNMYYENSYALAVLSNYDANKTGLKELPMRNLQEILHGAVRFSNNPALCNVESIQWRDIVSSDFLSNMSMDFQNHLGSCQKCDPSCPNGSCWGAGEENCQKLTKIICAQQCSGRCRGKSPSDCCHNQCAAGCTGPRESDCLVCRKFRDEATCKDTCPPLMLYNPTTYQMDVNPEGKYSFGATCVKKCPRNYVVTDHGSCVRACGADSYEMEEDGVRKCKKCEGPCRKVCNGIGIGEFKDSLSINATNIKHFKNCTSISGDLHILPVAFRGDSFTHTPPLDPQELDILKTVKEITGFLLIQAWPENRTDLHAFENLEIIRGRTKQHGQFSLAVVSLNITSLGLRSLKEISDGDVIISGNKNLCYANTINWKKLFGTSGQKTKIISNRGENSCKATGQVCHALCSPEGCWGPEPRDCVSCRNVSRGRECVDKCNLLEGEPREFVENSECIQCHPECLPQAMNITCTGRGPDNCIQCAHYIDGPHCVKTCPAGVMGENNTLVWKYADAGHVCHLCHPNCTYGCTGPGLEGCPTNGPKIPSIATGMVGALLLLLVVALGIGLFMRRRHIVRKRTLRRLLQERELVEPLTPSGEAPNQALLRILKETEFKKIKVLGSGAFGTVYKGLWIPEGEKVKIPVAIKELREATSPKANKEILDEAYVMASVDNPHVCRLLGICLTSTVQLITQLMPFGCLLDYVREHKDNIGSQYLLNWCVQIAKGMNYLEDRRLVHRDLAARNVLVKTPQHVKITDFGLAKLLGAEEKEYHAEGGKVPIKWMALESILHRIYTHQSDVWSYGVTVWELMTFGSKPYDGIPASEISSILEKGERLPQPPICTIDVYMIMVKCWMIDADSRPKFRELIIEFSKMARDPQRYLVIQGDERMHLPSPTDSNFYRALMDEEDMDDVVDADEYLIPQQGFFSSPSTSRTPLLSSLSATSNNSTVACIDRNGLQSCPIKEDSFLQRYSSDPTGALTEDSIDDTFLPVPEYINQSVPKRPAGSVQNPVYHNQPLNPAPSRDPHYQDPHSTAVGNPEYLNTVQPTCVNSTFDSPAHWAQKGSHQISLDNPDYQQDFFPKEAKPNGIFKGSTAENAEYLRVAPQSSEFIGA

[2] = molecular target: T1, aurora A kinase (AURKA) (Homo sapiens, UniProt O14965); experiment: ADP-Glo kinase assay, Aurora A; format: biochemical
T1 construct: purchased BPS Bioscience (assay run externally by the vendor)
T1 sequence (O14965 1-403): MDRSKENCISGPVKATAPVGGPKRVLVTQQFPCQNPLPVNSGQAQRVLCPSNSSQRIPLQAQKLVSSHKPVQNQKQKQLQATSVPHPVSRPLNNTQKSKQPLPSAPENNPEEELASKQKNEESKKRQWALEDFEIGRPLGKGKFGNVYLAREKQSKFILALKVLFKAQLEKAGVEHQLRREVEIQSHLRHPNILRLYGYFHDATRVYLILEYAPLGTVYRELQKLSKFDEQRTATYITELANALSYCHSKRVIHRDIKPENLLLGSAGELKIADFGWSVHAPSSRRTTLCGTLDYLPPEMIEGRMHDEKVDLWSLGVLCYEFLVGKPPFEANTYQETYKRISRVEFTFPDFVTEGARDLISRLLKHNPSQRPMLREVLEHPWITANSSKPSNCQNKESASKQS

[3] = 10 µM ATP, triplicate, read-out: EGFR IC50 ± SD
[4] = 10 µM ATP/0.2 mg/ml Poly-Glu-Tyr, read-out: EGFR IC50 (dose-response curve, supplement)
[5] = 10 µM ATP, triplicate, read-out: AURKA IC50 ± SD
[6] = 10 µM ATP/0.2 mg/ml Kemptide, read-out: Aurora A IC50 (dose-response curve, supplement)

IC50 [1, 3]: 667 ± 142 nM
IC50 [1, 4]: 693 nM
EGFR % Activity Set1 ([1]; Log[nM] 0): 103%
EGFR % Activity Set2 ([1]; Log[nM] 0): 98%
EGFR % Activity Set3 ([1]; Log[nM] 0): 105%
EGFR % Activity Set1 ([1]; Log[nM] 1.0): 112%
EGFR % Activity Set2 ([1]; Log[nM] 1.0): 109%
EGFR % Activity Set3 ([1]; Log[nM] 1.0): 103%
EGFR % Activity Set1 ([1]; Log[nM] 1.5): 113%
EGFR % Activity Set2 ([1]; Log[nM] 1.5): 108%
EGFR % Activity Set3 ([1]; Log[nM] 1.5): 95%
EGFR % Activity Set1 ([1]; Log[nM] 2.0): 95%
EGFR % Activity Set2 ([1]; Log[nM] 2.0): 88%
EGFR % Activity Set3 ([1]; Log[nM] 2.0): 81%
EGFR % Activity Set1 ([1]; Log[nM] 2.5): 74%
EGFR % Activity Set2 ([1]; Log[nM] 2.5): 63%
EGFR % Activity Set3 ([1]; Log[nM] 2.5): 67%
EGFR % Activity Set1 ([1]; Log[nM] 3.0): 36%
EGFR % Activity Set2 ([1]; Log[nM] 3.0): 35%
EGFR % Activity Set3 ([1]; Log[nM] 3.0): 43%
EGFR % Activity Set1 ([1]; Log[nM] 3.5): 18%
EGFR % Activity Set2 ([1]; Log[nM] 3.5): 16%
EGFR % Activity Set3 ([1]; Log[nM] 3.5): 23%
EGFR % Activity Set1 ([1]; Log[nM] 4.0): 8%
EGFR % Activity Set2 ([1]; Log[nM] 4.0): 7%
EGFR % Activity Set3 ([1]; Log[nM] 4.0): 10%
EGFR % Activity Set1 ([1]; Log[nM] 4.5): 3%
EGFR % Activity Set2 ([1]; Log[nM] 4.5): 4%
EGFR % Activity Set3 ([1]; Log[nM] 4.5): 3%
EGFR % Activity Set1 ([1]; Log[nM] 5.0): 1%
EGFR % Activity Set2 ([1]; Log[nM] 5.0): 1%
EGFR % Activity Set3 ([1]; Log[nM] 5.0): 2%
IC50 [2, 5]: 5450 ± 360 nM
IC50 [2, 6]: 5400 nM
Aurora A % Activity Set1 ([2]; Log[nM] 0): 101%
Aurora A % Activity Set2 ([2]; Log[nM] 0): 103%
Aurora A % Activity Set3 ([2]; Log[nM] 0): 105%
Aurora A % Activity Set1 ([2]; Log[nM] 1.0): 114%
Aurora A % Activity Set2 ([2]; Log[nM] 1.0): 103%
Aurora A % Activity Set3 ([2]; Log[nM] 1.0): 107%
Aurora A % Activity Set1 ([2]; Log[nM] 1.5): 111%
Aurora A % Activity Set2 ([2]; Log[nM] 1.5): 103%
Aurora A % Activity Set3 ([2]; Log[nM] 1.5): 109%
Aurora A % Activity Set1 ([2]; Log[nM] 2.0): 102%
Aurora A % Activity Set2 ([2]; Log[nM] 2.0): 107%
Aurora A % Activity Set3 ([2]; Log[nM] 2.0): 114%
Aurora A % Activity Set1 ([2]; Log[nM] 2.5): 99%
Aurora A % Activity Set2 ([2]; Log[nM] 2.5): 102%
Aurora A % Activity Set3 ([2]; Log[nM] 2.5): 110%
Aurora A % Activity Set1 ([2]; Log[nM] 3.0): 87%
Aurora A % Activity Set2 ([2]; Log[nM] 3.0): 90%
Aurora A % Activity Set3 ([2]; Log[nM] 3.0): 91%
Aurora A % Activity Set1 ([2]; Log[nM] 3.5): 63%
Aurora A % Activity Set2 ([2]; Log[nM] 3.5): 66%
Aurora A % Activity Set3 ([2]; Log[nM] 3.5): 61%
Aurora A % Activity Set1 ([2]; Log[nM] 4.0): 32%
Aurora A % Activity Set2 ([2]; Log[nM] 4.0): 29%
Aurora A % Activity Set3 ([2]; Log[nM] 4.0): 30%
Aurora A % Activity Set1 ([2]; Log[nM] 4.5): 16%
Aurora A % Activity Set2 ([2]; Log[nM] 4.5): 15%
Aurora A % Activity Set3 ([2]; Log[nM] 4.5): 13%
Aurora A % Activity Set1 ([2]; Log[nM] 5.0): 9%
Aurora A % Activity Set2 ([2]; Log[nM] 5.0): 9%
Aurora A % Activity Set3 ([2]; Log[nM] 5.0): 9%
SMILES: Cc1ccc(Nc2ncnc3[nH]ccc23)cc1 [Compound 9, N^4-(4-methylphenyl)-7H-pyrrolo[2,3-d]pyrimidin-4-amine]

IC50 [1, 3]: 125 ± 16.4 nM
IC50 [1, 4]: 125 nM
EGFR % Activity Set1 ([1]; Log[nM] 0): 90%
EGFR % Activity Set2 ([1]; Log[nM] 0): 96%
EGFR % Activity Set3 ([1]; Log[nM] 0): 103%
EGFR % Activity Set1 ([1]; Log[nM] 1.0): 97%
EGFR % Activity Set2 ([1]; Log[nM] 1.0): 90%
EGFR % Activity Set3 ([1]; Log[nM] 1.0): 97%
EGFR % Activity Set1 ([1]; Log[nM] 1.5): 78%
EGFR % Activity Set2 ([1]; Log[nM] 1.5): 82%
EGFR % Activity Set3 ([1]; Log[nM] 1.5): 80%
EGFR % Activity Set1 ([1]; Log[nM] 2.0): 53%
EGFR % Activity Set2 ([1]; Log[nM] 2.0): 56%
EGFR % Activity Set3 ([1]; Log[nM] 2.0): 51%
EGFR % Activity Set1 ([1]; Log[nM] 2.5): 30%
EGFR % Activity Set2 ([1]; Log[nM] 2.5): 29%
EGFR % Activity Set3 ([1]; Log[nM] 2.5): 28%
EGFR % Activity Set1 ([1]; Log[nM] 3.0): 14%
EGFR % Activity Set2 ([1]; Log[nM] 3.0): 12%
EGFR % Activity Set3 ([1]; Log[nM] 3.0): 12%
EGFR % Activity Set1 ([1]; Log[nM] 3.5): 6%
EGFR % Activity Set2 ([1]; Log[nM] 3.5): 5%
EGFR % Activity Set3 ([1]; Log[nM] 3.5): 5%
EGFR % Activity Set1 ([1]; Log[nM] 4.0): 2%
EGFR % Activity Set2 ([1]; Log[nM] 4.0): 2%
EGFR % Activity Set3 ([1]; Log[nM] 4.0): 2%
EGFR % Activity Set1 ([1]; Log[nM] 4.5): 1%
EGFR % Activity Set2 ([1]; Log[nM] 4.5): 1%
EGFR % Activity Set3 ([1]; Log[nM] 4.5): 1%
EGFR % Activity Set1 ([1]; Log[nM] 5.0): 1%
EGFR % Activity Set2 ([1]; Log[nM] 5.0): 1%
EGFR % Activity Set3 ([1]; Log[nM] 5.0): 1%
IC50 [2, 5]: 3730 ± 120 nM
IC50 [2, 6]: 3700 nM
Aurora A % Activity Set1 ([2]; Log[nM] 0): 98%
Aurora A % Activity Set2 ([2]; Log[nM] 0): 87%
Aurora A % Activity Set3 ([2]; Log[nM] 0): 96%
Aurora A % Activity Set1 ([2]; Log[nM] 1.0): 97%
Aurora A % Activity Set2 ([2]; Log[nM] 1.0): 94%
Aurora A % Activity Set3 ([2]; Log[nM] 1.0): 94%
Aurora A % Activity Set1 ([2]; Log[nM] 1.5): 100%
Aurora A % Activity Set2 ([2]; Log[nM] 1.5): 95%
Aurora A % Activity Set3 ([2]; Log[nM] 1.5): 95%
Aurora A % Activity Set1 ([2]; Log[nM] 2.0): 102%
Aurora A % Activity Set2 ([2]; Log[nM] 2.0): 97%
Aurora A % Activity Set3 ([2]; Log[nM] 2.0): 101%
Aurora A % Activity Set1 ([2]; Log[nM] 2.5): 100%
Aurora A % Activity Set2 ([2]; Log[nM] 2.5): 93%
Aurora A % Activity Set3 ([2]; Log[nM] 2.5): 98%
Aurora A % Activity Set1 ([2]; Log[nM] 3.0): 82%
Aurora A % Activity Set2 ([2]; Log[nM] 3.0): 83%
Aurora A % Activity Set3 ([2]; Log[nM] 3.0): 82%
Aurora A % Activity Set1 ([2]; Log[nM] 3.5): 60%
Aurora A % Activity Set2 ([2]; Log[nM] 3.5): 55%
Aurora A % Activity Set3 ([2]; Log[nM] 3.5): 53%
Aurora A % Activity Set1 ([2]; Log[nM] 4.0): 20%
Aurora A % Activity Set2 ([2]; Log[nM] 4.0): 19%
Aurora A % Activity Set3 ([2]; Log[nM] 4.0): 20%
Aurora A % Activity Set1 ([2]; Log[nM] 4.5): 9%
Aurora A % Activity Set2 ([2]; Log[nM] 4.5): 9%
Aurora A % Activity Set3 ([2]; Log[nM] 4.5): 9%
Aurora A % Activity Set1 ([2]; Log[nM] 5.0): 10%
Aurora A % Activity Set2 ([2]; Log[nM] 5.0): 10%
Aurora A % Activity Set3 ([2]; Log[nM] 5.0): 9%
SMILES: Brc1ccc(Nc2ncnc3[nH]ccc23)cc1 [Compound 10, N^4-(4-bromophenyl)-7H-pyrrolo[2,3-d]pyrimidin-4-amine]
